In patent US11702450B2, “Proteogenomic-based method for identifying tumor-specific antigens” (UNIVERSITÉ DE MONTRÉAL, priority 2018, dated 2023):
Entries after “also recorded” stand apart in the source; their conditions may differ.

How the values were obtained:
CD8^+ T cells = type: cell-based, C57BL/6 mice
EL4 cells = test: Immunization with TSA-pulsed DCs followed by live EL4 cell challenge and rechallenge; type: in vivo, C57BL/6 mice; conditions: for mice with prolonged survival after priming / day-150 survival rate: immunized twice with TSA-pulsed DCs, 5×10^5 live EL4 cells i.v. day 0; for outcome of rechallenge with live EL4 cells at day 150: surviving immunized mice rechallenged at day 150
Procedure: Generation of bone marrow-derived dendritic cells (DCs), mouse immunization and EL4 cell injection. Bone marrow—derived DCs were generated as previously described^13a,14a. For mouse immunization, DCs from male C57BL/6 mice were pulsed with 2 μM of the selected peptide for 3 hours, then washed. 8- to 12-week old female C57BL/6 mice were injected i.v. with 10^6 individually peptide-pulsed DCs at day −14 and −7, or with irradiated EL4 cells (10,000 cGy). As negative control, C57BL/6 female mice were immunized with unpulsed DCs. At day 0 and day 150, mice were injected i.v. with 5×10^5 EL4 cells and were monitored for weight loss, paralysis, or tumor outgrowth.

[1] = literature references 9, 37; cited from earlier work

| Sequence | frequency of antigen-specific CD8 T cells in naive mice (CD8^+ T cells) | day-150 survival rate (EL4 cells) | outcome of rechallenge with live EL4 cells at day 150 (EL4 cells) | other results |
| --- | --- | --- | --- | --- |
| HGIRNASFI (listed as Murine cytomegalovirus) [M45, H-2db, reference compound] | within range of those observed in previous studies | – | – | – |
| IILEFHSL (listed as Mus musculus) [EL4 TSA] | less than one | – | – | mice with prolonged survival after priming (EL4 cells): 10% |
| KAVYNFATC [gp-33, reference compound] | within range of those observed in previous studies | – | – | – |
| SPSYVYHQF (listed as Mus musculus) [AH1 peptide, aeTSA previously identified on CT26 cells] | – | – | – | antitumor responses and adverse effects [1]: elicits strong antitumor responses devoid of adverse effects |
| TSYKFESV [B8R, reference compound] | within range of those observed in previous studies | – | – | – |
| TVPLNHNTL (listed as Mus musculus) [EL4 TSA] | less than one | surviving up day 150 | survived the rechallenge | mice with prolonged survival after priming (EL4 cells): 10% |
| VNYIHRNV (VNYXHRNV; VARIANT (4)..(4) Xaa is Ile or Leu; listed as Mus musculus) | frequencies similar to those of the viral controls | 20% | not sufficient to protect mice upon rechallenge; also recorded: no significant protection upon rechallenge | time to death from leukemia after rechallenge (EL4 cells; surviving immunized mice rechallenged with EL4 cells at day 150): ≤ 50 days; tetramer^+ CD8 T cells in long-term survivors after rechallenge (CD8^+ T cells): large population of tetramer^+ cells |
| VNYLHRNV (VNYXHRNV; VARIANT (4)..(4) Xaa is Ile or Leu; listed as Mus musculus) | frequencies similar to those of the viral controls | 100% | survived the rechallenge | rank of protection against EL4 challenge (EL4 cells; immunization with TSA-pulsed DCs): best protection |
